Measured values published in patent publication US11207360B2, “Composition for the treatment of dysbiosis of the intestinal microbiota” (NUTRAVIS S.R.L., priority 2017, dated 2021).

Tests used:
Type in all cases: cell-based
Settings in all cases: liposomes containing 1 mg beta-carotene, 24 hours at 37° C.
Bacillus coagulans = experiment: Abscisic acid (ABA) production by Bacillus coagulans culture incubated with carotenoid liposomes, ABA ELISA
Method: Lyophilized probiotics were grown separately in LB medium in shake-flasks equipped with vented cap at 37° C. for 24 hours. After growth, each probiotic suspension was diluted with LB medium to reach approximately 0.1 O.D. at 600 nm. 3.5 ml of each diluted suspension was added with 500 μl of: i) empty liposomes, […] iii) liposomes containing 0.1 mg xanthophyll, iv) both liposomes containing carotene and xanthophyll, and incubated with shaking at 350 rpm at 37° C. for 24 hours. At the end of the incubation, each probiotic suspension was pelleted by centrifugation at 3000×g for 10 minutes. Supernatant was recovered, added with 4 vol of methanol and stored at −20° C. for 24 hours. Pellet was washed once with saline buffer, centrifuged at 3000×g for 10 minutes, resuspended in 2 ml of methanol, sonicated in ice and stored at −20° C. for 24 hours. 4 mg of carotene and 0.4 mg of xanthophyll were dissolved each in 200 μl of chloroform by vortexing. For each liposome preparation 200 mg of lecithin were dissolved in 500 μl of chloroform. Both carotene and xanthophyll chloroform solutions were added, separately, to the chloroform lecithin solution, vortexed, and completely dried with N2 to create a thin layer on the inner wall of a glass Corex. […] Quantification of abscisic acid (ABA) was performed on both pellets and supernatants obtained as described above (see Bacterial cell culture). […]

[1] = test system: Bacillus coagulans, Lactobacillus Plantarum; experiment: Abscisic acid production by culture of Bacillus coagulans and Lactobacillus Plantarum incubated with liposomes, ABA ELISA
Method: (§1) Lyophilized probiotics were grown separately in LB medium in shake-flasks equipped with vented cap at 37° C. for 24 hours. After growth, each probiotic suspension was diluted with LB medium to reach approximately 0.1 O.D. at 600 nm. 3.5 ml of each diluted suspension was added with 500 μl of:
(§2) ii) liposomes containing 1 mg carotene,
(§3) iii) liposomes containing 0.1 mg xanthophyll,
(§4) iv) both liposomes containing carotene and xanthophyll, and
(§5) incubated with shaking at 350 rpm at 37° C. for 24 hours.
(§6) At the end of the incubation, each probiotic suspension was pelleted by centrifugation at 3000×g for 10 minutes. Supernatant was recovered, added with 4 vol of methanol and stored at −20° C. for 24 hours. Pellet was washed once with saline buffer, centrifuged at 3000×g for 10 minutes, resuspended in 2 ml of methanol, sonicated in ice and stored at −20° C. for 24 hours.
(§7) 4 mg of carotene and 0.4 mg of xanthophyll were dissolved each in 200 μl of chloroform by vortexing. For each liposome preparation 200 mg of lecithin were dissolved in 500 μl of chloroform. Both carotene and xanthophyll chloroform solutions were added, separately, to the chloroform lecithin solution, vortexed, and completely dried with N2 to create a thin layer on the inner wall of a glass Corex. […]
(§8) Quantification of abscisic acid (ABA) was performed on both pellets and supernatants obtained as described above (see Bacterial cell culture). […]

Lactobacillus Rhamnosus = experiment: Abscisic acid production by Lactobacillus Rhamnosus culture incubated with liposomes, ABA ELISA
Method: as §1, §2, §3, §4, §5, §6, §7, §8

`CC1=C(/C=C/C(C)=C/C=C/C(C)=C/C=C/C=C(C)/C=C/C=C(C)/C=C/C2=C(C)CCCC2(C)C)C(C)(C)CCC1` [beta-carotene] was tested, and the “production of abscisic acid, times higher than culture with empty liposomes (FIG. 2)” value (Bacillus coagulans) was “about 5 times”, the “production of abscisic acid, times higher than culture with empty liposomes (FIG. 1A)” value (Bacillus coagulans; p=0.0093) was “about 6.6 times” and the “production of abscisic acid, times higher than culture with empty liposomes (FIG. 1B)” value [1] was “about 7.5 times”. For the same compound, the “production of abscisic acid, times higher than culture with empty liposomes (FIG. 1C)” value (Lactobacillus Rhamnosus) was “about 20 times”.
